From patent publication US10968172B2, “USP30 inhibitors” (Mitobridge, Inc., priority 2017, dated 2021)

The compounds below were run against USP30 (Homo sapiens (Human), UniProt Q70CQ3) (assay: In vitro biochemical assay for USP30 enzyme (Ubiquitin-Rhodamine110 cleavage, fluorescence)). Conditions: 20 nM USP30, 15 min pre-incubation, 100 nM Ub rhodamine substrate, 2 hrs at room temperature.
Description: In vitro biochemical assay for USP30 enzyme
The in vitro assay for USP30 evaluates the ability of a test compound to inhibit the activity of the enzyme to cleave ubiquitin from a substrate. Ubiquitin-rhodamine 110 is a quenched, fluorescent substrate for USP30. Cleavage of the amide bond between the C-terminal glycine of ubiquitin and rhodamine results in an increase in rhodamine fluorescence at 535 nm (Exc. 485 nm).
Incubation of the substrate in the presence or absence of USP30 was compared to confirm the deubiquitylating activity of USP30. The USP30 enzyme assay was performed by pre-incubating 20 nM of USP30 with varying concentration of a test compound in the assay buffer [PBS (pH 7.4), 1 mM DTT, 0.01% Tween 20, 0.01% BSA, DMSO final concentration is 1%] for 15 mins at room temperature, following which 100 nM of substrate Ub rhodamine was added and incubated at room temperature for 2 hrs and the plate was read for fluorescence intensity at Ex. 485 nm/535 nm in VICTOR X5 plate reader. The percent inhibition of activity of the enzyme is calculated by comparing counts in the presence and absence of compounds.
Test compounds were screened at various concentrations (10-12 tested concentrations) and dose response curves were generated was generated using GraphPad Prism software Version 7 (San Diego, Calif., USA) with non-linear regression curve fit for sigmoidal dose response (variable slope).

USP30, sequence (Q70CQ3 whole entry): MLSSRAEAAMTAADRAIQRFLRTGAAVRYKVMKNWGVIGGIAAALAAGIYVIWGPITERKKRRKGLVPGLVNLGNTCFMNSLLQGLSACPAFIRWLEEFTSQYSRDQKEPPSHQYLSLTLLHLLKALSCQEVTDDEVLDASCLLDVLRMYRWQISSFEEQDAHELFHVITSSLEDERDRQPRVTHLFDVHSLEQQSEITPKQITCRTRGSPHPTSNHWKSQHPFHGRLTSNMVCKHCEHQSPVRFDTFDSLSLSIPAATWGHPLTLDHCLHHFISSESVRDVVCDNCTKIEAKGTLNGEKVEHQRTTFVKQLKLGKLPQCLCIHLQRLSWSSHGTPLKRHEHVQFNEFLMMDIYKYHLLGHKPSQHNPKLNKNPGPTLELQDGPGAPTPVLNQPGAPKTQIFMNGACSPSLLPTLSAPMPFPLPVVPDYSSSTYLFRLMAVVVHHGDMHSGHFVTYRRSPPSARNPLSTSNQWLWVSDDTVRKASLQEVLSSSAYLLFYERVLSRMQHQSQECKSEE

Structure (SMILES)	IC50 [nM]
CC(C)(C)NS(=O)(=O)c1cccc2c(NC(=O)[C@H](Cc3ccc(F)cc3)NC(=O)c3ccccc3)cccc12 [Compound 7e, (S)-N-(1-((5-(N-(tert-butyl)sulfamoyl)naphthalen-1-yl)amino)-3-(4-fluorophenyl)-1-oxopropan-2-yl)benzamide]	153
COc1ccc(C[C@H](NC(=O)c2ccccc2)C(=O)Nc2cccc3c(S(=O)(=O)NC(C)(C)C)cccc23)cc1 [Compound 7f, (S)-N-(1-((5-(N-(tert-butyl)sulfamoyl)naphthalen-1-yl)amino)-3-(4-methoxyphenyl)-1-oxopropan-2-yl)benzamide]	89
CC(C)(C)NS(=O)(=O)c1cccc2c(NC(=O)[C@H](CC3CC3)NC(=O)c3ccccc3)cccc12 [Compound 7h, (S)-N-(1-((5-(N-(tert-butyl)sulfamoyl)naphthalen-1-yl)amino)-3-cyclopropyl-1-oxopropan-2-yl)benzamide]	2200
CC(C)(C)NS(=O)(=O)c1cccc2c(NC(=O)[C@H](Cc3cnc[nH]3)NC(=O)c3ccccc3)cccc12 [Compound 7i, (S)-N-(1-((5-(N-(tert-butyl)sulfamoyl)naphthalen-1-yl)amino)-3-(1H-imidazol-5-yl)-1-oxopropan-2-yl)benzamide]	> 10000
CC(C)(C)NS(=O)(=O)c1cccc2c(NC(=O)[C@H](Cc3ccc(C#N)cc3)NC(=O)c3ccccc3)cccc12 [Compound 7j, (S)-N-(1-((5-(N-(tert-butyl)sulfamoyl)naphthalen-1-yl)amino)-3-(4-cyanophenyl)-1-oxopropan-2-yl)benzamide]	273
CC(C)(C)NS(=O)(=O)c1cccc2c(NC(=O)[C@H](Cc3cccs3)NC(=O)c3ccccc3)cccc12 [Compound 7k, (S)-N-(1-((5-(N-(tert-butyl)sulfamoyl)naphthalen-1-yl)amino)-1-oxo-3-(thiophen-2-yl)propan-2-yl)benzamide]	230
Cc1ccccc1C[C@H](NC(=O)c1ccccc1)C(=O)Nc1cccc2c(S(=O)(=O)NC(C)(C)C)cccc12 [Compound 7l, (S)-N-(1-((5-(N-(tert-butyl)sulfamoyl)naphthalen-1-yl)amino)-1-oxo-3-(o-tolyl)propan-2-yl)benzamide]	> 10000
Cc1ccc(C[C@H](NC(=O)c2ccccc2)C(=O)Nc2cccc3c(S(=O)(=O)NC(C)(C)C)cccc23)cc1 [Compound 7m, (S)-N-(1-((5-(N-(tert-butyl)sulfamoyl)naphthalen-1-yl)amino)-1-oxo-3-(p-tolyl)propan-2-yl)benzamide]	> 10000
CC(C)(C)NS(=O)(=O)c1cccc2c(NC(=O)[C@H](Cc3ccc(Cl)cc3)NC(=O)c3ccccc3)cccc12 [Compound 7n, (S)-N-(1-((5-(N-(tert-butyl)sulfamoyl)naphthalen-1-yl)amino)-3-(4-chlorophenyl)-1-oxopropan-2-yl)benzamide]	446

Next, values leading:

IC50 [nM]	Structure (SMILES)
> 10000	CC(C)(C)NS(=O)(=O)c1ccc(NC(=O)[C@H](Cc2ccccc2)NC(=O)c2ccccc2)cc1 [Compound 10a, (S)-N-(1-((4-(N-(tert-butyl)sulfamoyl)phenyl)amino)-1-oxo-3-phenylpropan-2-yl)benzamide]
59	CC(C)(C)NS(=O)(=O)c1ccc(NC(=O)[C@H](Cc2ccccc2)NC(=O)C2CCCCC2)cc1 [Compound 10b, (S)—N-(1-((4-(N-(tert-butyl)sulfamoyl)phenyl)amino)-1-oxo-3-phenylpropan-2-yl)cyclohexanecarboxamide]
71	CC(C)(C)NS(=O)(=O)c1ccc(NC(=O)[C@H](Cc2ccccc2)NC(=O)C2CCCC2)cc1 [Compound 10c, (S)-N-(1-((4-(N-(tert-butyl)sulfamoyl)phenyl)amino)-1-oxo-3-phenylpropan-2-yl)cyclopentanecarboxamide]
28	CC(C)(C)NS(=O)(=O)c1ccc(NC(=O)[C@@H](Cc2ccccc2)NC(=O)C2CCCCC2)cc1 [Compound 10d, (R)-N-(1-((4-(N-(tert-butyl)sulfamoyl)phenyl)amino)-1-oxo-3-phenylpropan-2-yl)cyclohexanecarboxamide]
